Assays:
Test in all cases: competitive isoTOP-ABPP
Assay type in all cases: binding
[1] = target: T1, RPS10 40S ribosomal protein S10 (Homo sapiens, UniProt P46783); details: for R value (DMSO/fragment) for probe 1 labeling: P46783_K139; for R value (DMSO/fragment) for probe 1 labeling / isoTOP-ABPP reactivity ratio at lysine P46783_K139 / isoTOP-ABPP ratio (R) at liganded lysine P46783_K139: 50 uM, in vitro; for R value (DMSO/fragment) for probe 1 labeling / isoTOP-ABPP reactivity ratio at lysine P46783_K139: 231 sol; for isoTOP-ABPP ratio (R) at liganded lysine P46783_K139: sol, 231
T1 construct: isoTOP-ABPP experiments performed in cell lysates (in vitro); endogenous in cells; host or cells: soluble proteome of human cancer cell lines (MDA-MB-231; Ramos and Jurkat also prepared)
Method in brief: (§1)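 Cell lysate (0.5 ml) was pre-treated with fragment, 50 μM for activated esters or 100 μM for guanidinylating agents, versus DMSO, then labeled 1 h at ambient temperature with 0.1 mM STP-alkyne. Light/heavy TEV tags attached by CuAAC; R = DMSO/compound MS1 peak-area ratio, median per lysine.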

FAM136A Protein FAM136A = target: T2, FAM136A Protein FAM136A (Homo sapiens, UniProt Q96C01); details: for R value (DMSO/fragment) for probe 1 labeling: Q96C01_K99; for R value (DMSO/fragment) for probe 1 labeling / isoTOP-ABPP reactivity ratio at lysine Q96C01_K99 / isoTOP-ABPP ratio (R) at liganded lysine Q96C01_K99: 50 uM, in vitro; for R value (DMSO/fragment) for probe 1 labeling / isoTOP-ABPP reactivity ratio at lysine Q96C01_K99: 231 sol; for isoTOP-ABPP ratio (R) at liganded lysine Q96C01_K99: sol, 231
T2 construct: isoTOP-ABPP experiments performed in cell lysates (in vitro); endogenous in cells; host or cells: soluble proteome of human cancer cell lines (MDA-MB-231; Ramos and Jurkat also prepared)
T2 sequence (Q96C01 whole entry, the tested form may be a part): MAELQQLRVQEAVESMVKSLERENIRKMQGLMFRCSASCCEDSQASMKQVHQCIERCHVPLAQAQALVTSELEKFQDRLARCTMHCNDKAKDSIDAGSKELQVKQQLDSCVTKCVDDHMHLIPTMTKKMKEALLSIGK
Method in brief: as §1

RTN4 Reticulon-4 = target: T3, RTN4 Reticulon-4 (Homo sapiens, UniProt Q9NQC3); details: for R value (DMSO/fragment) for probe 1 labeling: Q9NQC3_K1104; for R value (DMSO/fragment) for probe 1 labeling / isoTOP-ABPP reactivity ratio at lysine Q9NQC3_K1104 / isoTOP-ABPP ratio (R) at liganded lysine Q9NQC3_K1104: 50 uM, in vitro; for R value (DMSO/fragment) for probe 1 labeling / isoTOP-ABPP reactivity ratio at lysine Q9NQC3_K1104: 231 sol; for isoTOP-ABPP ratio (R) at liganded lysine Q9NQC3_K1104: sol, 231
T3 construct: endogenous in cells; host or cells: MDA-MB-231 lysate
T3 sequence (Q9NQC3 1-1192): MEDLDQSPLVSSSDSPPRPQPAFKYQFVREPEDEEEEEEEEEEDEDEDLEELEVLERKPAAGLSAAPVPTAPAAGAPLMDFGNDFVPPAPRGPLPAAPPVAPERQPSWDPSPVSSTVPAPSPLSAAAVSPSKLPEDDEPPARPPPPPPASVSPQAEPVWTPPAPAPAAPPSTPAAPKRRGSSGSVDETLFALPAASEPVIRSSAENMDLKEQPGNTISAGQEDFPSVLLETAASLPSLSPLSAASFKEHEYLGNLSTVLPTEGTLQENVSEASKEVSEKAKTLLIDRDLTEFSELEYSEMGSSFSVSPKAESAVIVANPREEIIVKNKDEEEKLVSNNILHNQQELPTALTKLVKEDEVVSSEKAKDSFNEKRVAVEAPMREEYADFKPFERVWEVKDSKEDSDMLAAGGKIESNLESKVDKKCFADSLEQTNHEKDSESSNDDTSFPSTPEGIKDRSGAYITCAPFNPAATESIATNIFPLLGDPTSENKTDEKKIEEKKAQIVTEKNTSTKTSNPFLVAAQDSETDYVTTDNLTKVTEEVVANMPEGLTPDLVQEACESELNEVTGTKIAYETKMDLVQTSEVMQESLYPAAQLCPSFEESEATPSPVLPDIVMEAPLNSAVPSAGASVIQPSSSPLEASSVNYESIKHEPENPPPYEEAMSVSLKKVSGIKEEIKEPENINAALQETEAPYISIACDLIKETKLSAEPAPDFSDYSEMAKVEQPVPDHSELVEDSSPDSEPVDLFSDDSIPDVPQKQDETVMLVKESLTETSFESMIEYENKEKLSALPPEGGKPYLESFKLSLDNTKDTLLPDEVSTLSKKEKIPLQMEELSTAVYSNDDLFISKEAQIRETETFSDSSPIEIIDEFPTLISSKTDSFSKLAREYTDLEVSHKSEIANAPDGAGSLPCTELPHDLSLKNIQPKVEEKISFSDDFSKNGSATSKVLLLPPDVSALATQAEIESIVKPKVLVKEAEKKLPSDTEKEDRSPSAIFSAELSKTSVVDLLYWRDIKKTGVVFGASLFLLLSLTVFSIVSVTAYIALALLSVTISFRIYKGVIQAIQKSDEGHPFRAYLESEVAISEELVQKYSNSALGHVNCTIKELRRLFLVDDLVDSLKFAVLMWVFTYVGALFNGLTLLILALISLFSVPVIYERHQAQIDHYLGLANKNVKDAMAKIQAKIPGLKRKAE
Method in brief: as §1

O=C(CCc1cn(-c2ccccc2)nc1-c1ccccc1)Oc1c(F)c(F)c(F)c(F)c1F [fragment 19, Pentafluorophenyl 3-(1,3-diphenyl-1H-pyrazol-4-yl)propanoate]
R value (DMSO/fragment) for probe 1 labeling [1]: 1.0

O=C(Oc1c(F)c(F)c(F)c(F)c1F)C(c1ccccc1)c1ccccc1 [fragment 20, Pentafluorophenyl 2,2-diphenylacetate]
R value (DMSO/fragment) for probe 1 labeling (FAM136A Protein FAM136A): 0.9
R value (DMSO/fragment) for probe 1 labeling (RTN4 Reticulon-4): 2.4
R value (DMSO/fragment) for probe 1 labeling [1]: 0.6

O=C(Oc1c(F)c(F)c(F)c(F)c1F)c1cc(C(F)(F)F)cc(C(F)(F)F)c1 [fragment 21, Pentafluorophenyl 3,5-bis(trifluoromethyl)benzoate]
R value (DMSO/fragment) for probe 1 labeling (FAM136A Protein FAM136A): 1.1
R value (DMSO/fragment) for probe 1 labeling (RTN4 Reticulon-4): 2.5
R value (DMSO/fragment) for probe 1 labeling [1]: 0.5

Cn1cc(CC(=O)Oc2c(F)c(F)c(F)c(F)c2F)c2ccccc21 [fragment 22, Pentafluorophenyl 2-(1-methyl-1H-indol-3-yl)acetate]
R value (DMSO/fragment) for probe 1 labeling [1]: 0.9

COc1cc(CCC(=O)Oc2c(F)c(F)c(F)c(F)c2F)cc(OC)c1OC [fragment 23, Pentafluorophenyl 3-(3,4,5-trimethoxyphenyl)propanoate]
R value (DMSO/fragment) for probe 1 labeling (RTN4 Reticulon-4): 3.3

O=C(Oc1c(F)c(F)c(F)c(F)c1F)C1CCN(C(=O)OCc2ccccc2)CC1 [fragment 24, 1-Benzyl 4-(pentafluorophenyl) piperidine-1,4-dicarboxylate]
isoTOP-ABPP reactivity ratio at lysine Q9NQC3_K1104 (RTN4 Reticulon-4): 2.3
isoTOP-ABPP reactivity ratio at lysine P46783_K139 [1]: 1.2

O=C(CCc1coc2cc(F)ccc2c1=O)Oc1c(F)c(F)c(F)c(F)c1F [fragment 26, Pentafluorophenyl 3-(7-fluoro-4-oxo-4H-chromen-3-yl)propanoate]
isoTOP-ABPP reactivity ratio at lysine Q96C01_K99 (FAM136A Protein FAM136A): 0.9
isoTOP-ABPP reactivity ratio at lysine Q9NQC3_K1104 (RTN4 Reticulon-4): 5.3
isoTOP-ABPP reactivity ratio at lysine P46783_K139 [1]: 1.0

CCn1cc(C(=O)Oc2c(F)c(F)c(F)c(F)c2F)c(=O)c2ccc(C)nc21 [fragment 28, Pentafluorophenyl 1-ethyl-7-methyl-4-oxo-1,4-dihydro-1,8-naphthyridine-3-carboxylate]
isoTOP-ABPP reactivity ratio at lysine Q9NQC3_K1104 (RTN4 Reticulon-4): 1.0

O=C(Oc1ccc([N+](=O)[O-])cc1[N+](=O)[O-])C(c1ccccc1)c1ccccc1 [fragment 30, 2,4-Dinitrophenyl 2,2-diphenylacetate]
isoTOP-ABPP reactivity ratio at lysine Q96C01_K99 (FAM136A Protein FAM136A): 0.8
isoTOP-ABPP reactivity ratio at lysine P46783_K139 [1]: 1.2

O=C(Oc1ccc([N+](=O)[O-])cc1[N+](=O)[O-])c1cc(C(F)(F)F)cc(C(F)(F)F)c1 [fragment 31, 2,4-Dinitrophenyl 3,5-bis(trifluoromethyl)benzoate]
isoTOP-ABPP reactivity ratio at lysine Q9NQC3_K1104 (RTN4 Reticulon-4): 6.1

Cn1cc(CC(=O)Oc2ccc([N+](=O)[O-])cc2[N+](=O)[O-])c2ccccc21 [fragment 32, 2,4-Dinitrophenyl 2-(1-methyl-1H-indol-3-yl)acetate]
isoTOP-ABPP reactivity ratio at lysine Q96C01_K99 (FAM136A Protein FAM136A): 0.9
isoTOP-ABPP reactivity ratio at lysine Q9NQC3_K1104 (RTN4 Reticulon-4): 20.0

O=C(Oc1ccc([N+](=O)[O-])cc1[N+](=O)[O-])C1CCN(C(=O)OCc2ccccc2)CC1 [fragment 34, 1-Benzyl 4-(2,4-dinitrophenyl) piperidine-1,4-dicarboxylate]
isoTOP-ABPP ratio (R) at liganded lysine Q96C01_K99 (FAM136A Protein FAM136A): 1.2

O=C(Oc1ccc([N+](=O)[O-])cc1[N+](=O)[O-])c1ccc2ccccc2n1 [fragment 35, 2,4-Dinitrophenyl quinoline-2-carboxylate]
isoTOP-ABPP ratio (R) at liganded lysine Q9NQC3_K1104 (RTN4 Reticulon-4): 6.0

O=C(CCc1coc2cc(F)ccc2c1=O)Oc1ccc([N+](=O)[O-])cc1[N+](=O)[O-] [fragment 36, 2,4-Dinitrophenyl 3-(7-fluoro-4-oxo-4H-chromen-3-yl)propanoate]
isoTOP-ABPP ratio (R) at liganded lysine Q96C01_K99 (FAM136A Protein FAM136A): 0.8
isoTOP-ABPP ratio (R) at liganded lysine P46783_K139 [1]: 0.7

O=C(CC12CC3CC(CC(C3)C1)C2)Oc1ccc([N+](=O)[O-])cc1[N+](=O)[O-] [fragment 38, 2,4-Dinitrophenyl 2-(adamantan-1-yl)acetate]
isoTOP-ABPP ratio (R) at liganded lysine P46783_K139 [1]: 1.0

O=C(Oc1ccc([N+](=O)[O-])cc1[N+](=O)[O-])c1ccc(Oc2ccccc2)cc1 [fragment 39, 2,4-Dinitrophenyl 4-phenoxybenzoate]
isoTOP-ABPP ratio (R) at liganded lysine Q96C01_K99 (FAM136A Protein FAM136A): 0.8

O=C(Oc1ccc([N+](=O)[O-])cc1[N+](=O)[O-])c1ccccc1Nc1cccc(C(F)(F)F)c1 [fragment 40, 2,4-Dinitrophenyl 2-((3-(trifluoromethyl)phenyl)amino)benzoate]
isoTOP-ABPP ratio (R) at liganded lysine Q96C01_K99 (FAM136A Protein FAM136A): 0.8
isoTOP-ABPP ratio (R) at liganded lysine Q9NQC3_K1104 (RTN4 Reticulon-4): 2.1

CC(C)(C)OC(=O)NCCCC(=O)Oc1ccc([N+](=O)[O-])cc1[N+](=O)[O-] [fragment 41, 2,4-Dinitrophenyl 4-((tert-butoxycarbonyl)amino)butanoate]
isoTOP-ABPP ratio (R) at liganded lysine Q96C01_K99 (FAM136A Protein FAM136A): 0.9
isoTOP-ABPP ratio (R) at liganded lysine Q9NQC3_K1104 (RTN4 Reticulon-4): 4.3

CC(=O)Oc1ccc([N+](=O)[O-])cc1[N+](=O)[O-] [fragment 43, 2,4-Dinitrophenyl acetate]
isoTOP-ABPP ratio (R) at liganded lysine Q96C01_K99 (FAM136A Protein FAM136A): 1.1
isoTOP-ABPP ratio (R) at liganded lysine Q9NQC3_K1104 (RTN4 Reticulon-4): 1.4

N#Cc1ccc(C(=O)Oc2ccc([N+](=O)[O-])cc2[N+](=O)[O-])cc1 [fragment 44, 2,4-Dinitrophenyl 4-cyanobenzoate]
isoTOP-ABPP ratio, lysine Q9NQC3_K1104 (RTN4 Reticulon-4; 50 uM_231_sol_in vitro): 2.6
isoTOP-ABPP ratio, lysine P46783_K139 ([1]; 50 uM_231_sol_in vitro): 0.6

O=C(CCc1ccc2c(c1)OCO2)Oc1ccc([N+](=O)[O-])cc1[N+](=O)[O-] [fragment 45, 2,4-Dinitrophenyl 3-(benzo[d][1,3]dioxol-5-yl)propanoate]
isoTOP-ABPP ratio, lysine Q96C01_K99 (FAM136A Protein FAM136A; 50 uM_231_sol_in vitro): 1.0

O=C(ON1C(=O)CCC1=O)c1cc(C(F)(F)F)cc(C(F)(F)F)c1 [fragment 46, 3,5-Bis(trifluoromethyl)benzoic acid NHS ester]
isoTOP-ABPP ratio, lysine Q96C01_K99 (FAM136A Protein FAM136A; 50 uM_231_sol_in vitro): 0.6
isoTOP-ABPP ratio, lysine Q9NQC3_K1104 (RTN4 Reticulon-4; 50 uM_231_sol_in vitro): 2.5

O=C(Oc1c(F)c(F)c(C(F)(F)F)c(F)c1F)c1cc(C(F)(F)F)cc(C(F)(F)F)c1 [fragment 47, 2,3,5,6-Tetrafluoro-4-(trifluoromethyl)phenyl 3,5-bis(trifluoromethyl)benzoate]
isoTOP-ABPP ratio, lysine Q96C01_K99 (FAM136A Protein FAM136A; 50 uM_231_sol_in vitro): 0.7
isoTOP-ABPP ratio, lysine Q9NQC3_K1104 (RTN4 Reticulon-4; 50 uM_231_sol_in vitro): 3.8

O=C(Oc1c(F)c(F)cc(F)c1F)c1cc(C(F)(F)F)cc(C(F)(F)F)c1 [fragment 48, 2,3,5,6-Tetrafluorophenyl 3,5-bis(trifluoromethyl)benzoate]
isoTOP-ABPP ratio, lysine Q96C01_K99 (FAM136A Protein FAM136A; 50 uM_231_sol_in vitro): 5.5
isoTOP-ABPP ratio, lysine P46783_K139 ([1]; 50 uM_231_sol_in vitro): 0.8

COC(=O)NC(=NC(=O)OCC1c2ccccc2-c2ccccc21)n1cccn1 [fragment 49, N-Methoxycarbonyl-N′-9-fluorenylmethoxycarbonyl-pyrazole-1-carboxamidine]
isoTOP-ABPP ratio, lysine Q96C01_K99 (FAM136A Protein FAM136A; 100 uM_231_sol_in vitro): 1.3
isoTOP-ABPP ratio, lysine P46783_K139 ([1]; 100 uM_231_sol_in vitro): 20.0

CC(C)(C)OC(=O)N=C(NC(=O)OC(C)(C)C)n1cccn1 [fragment 50, reference compound]
isoTOP-ABPP ratio, lysine Q9NQC3_K1104 (RTN4 Reticulon-4; 100 uM_231_sol_in vitro): 1.4
isoTOP-ABPP ratio, lysine P46783_K139 ([1]; 100 uM_231_sol_in vitro): 1.1

NC(=O)c1cc(C(F)(F)F)cc(C(F)(F)F)c1 [fragment 51, reference compound]
isoTOP-ABPP ratio, lysine Q9NQC3_K1104 (RTN4 Reticulon-4; 50 uM_231_sol_in vitro): 0.7
